SMILES strings stand for the structures.

The test system of the experiment is NCI-H295R. The experiment in a line: IC50 (antiproliferative, ATP content). The note with it: 48 h. The procedure, abridged: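 Following overnight culture of adrenocortical carcinoma cells (1500 per well) in 1536-well plates with serum-free ITS-supplemented DMEM, library compounds were pin-transferred at 8 final concentrations from 0.6 nM to 46 µM. Incubation lasted 48 h at 37 °C, 5% CO2, and the CellTiter-Glo signal was read after 20 min at room temperature. Data were fitted with a four-parameter logistic model. Each IC50 came from that fit after normalisation to vehicle and positive-control wells, and compounds without a concentration response were reported as above the top dose.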
In the case of `O=C1OC2(c3ccc([O-])cc3Oc3cc([O-])ccc32)c2ccccc21.[Na+].[Na+]`, the half-maximal inhibitory concentration (IC50) is > 46 µM.
Then `c1ccc(-n2cnnn2)cc1`, with > 46 µM.
Then `CN1CCN(C(c2ccccc2)c2ccccc2)CC1.Cl.Cl`, with > 46 µM.
Then `C[C@]12N[C@H](Cc3ccccc31)c1ccccc12.O=C(O)/C=C\C(=O)O`, with > 46 µM.
Consider `O=C([O-])[C@H](O)[C@@H](O)[C@H](O)[C@H](O)CO.[Na+]`, for which the IC50 is > 46 µM.
Then `CCOCC(O)COc1ccc(NC(=O)CC[S+](C)C)cc1.Cc1ccc(S(=O)(=O)[O-])cc1` (configuration not stated), with > 46 µM; and `CC12CCC(CC1)C(C)(C)O2`, with > 46 µM.
As for `CN1CCN(C2=Nc3ccccc3Sc3ccc(Cl)cc32)CC1`, the IC50 is > 46 µM.
For the molecule `O=C3N1/C(=C(/C)CS[C@@H]1[C@@H]3NC(=O)[C@H](N)c2ccc(O)cc2)C(O)=O`, the IC50 is > 46 µM.
For `COc1ccc(C2CNC(=O)C2)cc1OC1CCCC1` (configuration not stated) the value was > 46 µM; for `O.O.O.O.O.O.O.O=S(=O)([O-])[O-].[Co+2]`, > 46 µM; for `Cc1ncc([N+](=O)[O-])n1CCO`, > 46 µM.
For `C=C[C@]1(C)C[C@@H](OC(=O)CSCCN(CC)CC)[C@]2(C)[C@@H]3C(=O)CC[C@@]3(CC[C@@H]2C)[C@@H](C)[C@@H]1O` the value was > 46 µM; for `CC(C)Oc1ccc2c(=O)c(-c3ccccc3)coc2c1`, > 46 µM; for `ClC3=C(C=CC5=C3)OC1=CC([C@@](C(N[C@@](C8=CC%11=C(O)C=C8)([H])C(N[C@H]([C@](N[C@@H]([C@@](O)=O)C%12=C%11C(O[C@H]%13O[C@H](CO)[C@@H](O)[C@H](O)[C@@H]%13O)=CC(O)=C%12)=O)[C@@H]5O[C@@]6([H])[C@H](NC(C)=O)[C@@H](O)[C@H](O)[C@@H](CO)O6)=O)=O)([H])NC([C@@](C9=CC(O)=CC(OC%10=C(O)C=CC([C@@H]%14N)=C%10)=C9)([H])NC([C@H](NC%14=O)C7)=O)=O)=CC(OC4=CC=C7C=C4Cl)=C1O[C@H]2[C@H](NC(CC\C=C/CCCCC)=O)[C@@H](O)[C@H](O)[C@@H](CO)O2`, > 46 µM.
Regarding `C#C[C@]1(O)CC[C@H]2[C@@H]3CCC4=C(CCC(=O)C4)[C@H]3CC[C@@]21C`, the IC50 was > 46 µM.
Then `O=C([O-])CC(O)C(=O)[O-].[Na+].[Na+]` (configuration not stated), with > 46 µM; and `NCC1(CC(=O)O)CCCCC1`, with > 46 µM; and `CC[C@H](C)[C@H](N)C1=N[C@H](C(=O)N[C@@H](CC(C)C)C(=O)N[C@H](CCC(=O)O)C(=O)N[C@H](C(=O)N[C@H]2CCCCNC(=O)[C@H](CC(N)=O)NC(=O)[C@@H](CC(=O)O)NC(=O)[C@H](Cc3cnc[nH]3)NC(=O)[C@@H](Cc3ccccc3)NC(=O)[C@H]([C@@H](C)CC)NC(=O)[C@@H](CCCN)NC2=O)[C@@H](C)CC)CS1`, with > 46 µM.
As for `NCc1cccnc1`, the IC50 was > 46 µM.
For `CCCOC(=O)c1ccccc1O` the value was > 46 µM; for `CC1=C(C/C=C(\C)CCC[C@H](C)CCC[C@H](C)CCCC(C)C)C(=O)c2ccccc2C1=O`, > 46 µM.
Consider `NC(CS)C(=O)O` (configuration not stated), for which the IC50 was > 46 µM.
Then `CC(C)=CCC/C(C)=C/C=C/C(C)=C/C=C/C(C)=C/C=C/C=C(C)/C=C/C=C(C)/C=C/C=C(\C)CCC=C(C)C`, with > 46 µM.
For the molecule `CS(=O)(=O)O.CS(=O)(=O)O.N=C(N)c1ccc(/C=C/c2ccc(C(=N)N)cc2O)cc1`, the IC50 is > 46 µM.
Then `CCN(CC)CCOCCOC(=O)C(CC)(CC)c1ccccc1.O=C(O)CC(O)(CC(=O)O)C(=O)O`, with > 46 µM.
`CCC1(C2=NCCN2)Cc2ccccc2O1` (configuration not stated): the IC50 was > 46 µM.
For `CN(C)C(Cc1ccccc1)c1ccccc1` (configuration not stated) the value was > 46 µM; for `O=C(O)CNC(=O)c1ccccc1`, > 46 µM.
Then `O=C(O)[C@H](O)c1ccccc1`, with > 46 µM; and `O=C1O[C@H](CO)[C@@H](O)[C@H](O)[C@H]1O`, with > 46 µM; and `CNCCCN1c2ccccc2CCc2ccccc21.Cl`, with > 46 µM.
As for `O=C(SC[C@@H](C(N(C3)[C@@H](C[C@@H]3SC2=CC=CC=C2)[C@@](O)=O)=O)C)C1=CC=CC=C1`, the IC50 was > 46 µM.
Take `CC1CC(OC(=O)C(O)c2ccccc2)CC(C)(C)C1` (configuration not stated): the IC50 was > 46 µM.
Turning to `CC[n+]1c(-c2ccccc2)c2cc(N)ccc2c2ccc(N)cc21.[Br-]`, the IC50 is > 46 µM.
Then `[NH2][Pt]([NH2])([Cl])[Cl]`, with > 46 µM.
For `Nc1nc(=O)c2ncn(CCC(CO)CO)c2[nH]1` the value was > 46 µM; for `Cc1ccc(C(=O)c2ccc(CC(=O)[O-])n2C)cc1.O.O.[Na+]`, > 46 µM.
`CO/N=C1\CN(c2nc3c(cc2F)c(=O)c(C(=O)O)cn3C2CC2)CC1CN.CS(=O)(=O)O` (configuration not stated): the IC50 was > 46 µM.
Then `CC(=O)N(O)CCCCCNC(=O)CCC(=O)N(O)CCCCCNC(=O)CCC(=O)N(O)CCCCCN.CS(=O)(=O)O`, with > 46 µM.
For `CC(CN1c2ccccc2Sc2ccccc21)N(C)C` (configuration not stated) the value was > 46 µM; for `Cl.NCc1ccc(S(N)(=O)=O)cc1`, > 46 µM.
As for `N[C@@]([C@H]([C@H]1O)O[C@H]([C@@H]([C@H]1O)O)O)=O`, the IC50 was > 46 µM.
Take `CN1C(=O)C(=NNC(N)=S)c2ccccc21`: the IC50 was > 46 µM.
Then `O=C2N1[C@]([C@@]([H])2NC(C(C(OC)=CC=C3)=C3OC)=O)([H])SC(C)(C)[C@@H]1[C@@]([O-])=O.[Na+].O`, with > 46 µM.
Then `CCC1(C)CC(=O)NC(=O)C1`, with > 46 µM; and `CCOC(=O)C1=C(C)NC(C)=C(C(=O)OC)C1c1cccc(Cl)c1Cl` (configuration not stated), with > 46 µM.
For the molecule `COc1ccc(CN(CCN(C)C)c2ccccn2)cc1`, the IC50 is > 46 µM.
Regarding `Cc1cccc(Nc2ccccc2C(=O)O)c1C`, the IC50 is > 46 µM.
Then `Cc1ccccc1/N=N/c1ccc(/N=N/c2c(O)ccc3ccccc23)c(C)c1`, with > 46 µM.
For the molecule `CN/C(=C\[N+](=O)[O-])NCCSCc1ccc(CN(C)C)o1`, the IC50 was > 46 µM.
Consider `[O-]S(=O)(=O)OC.C[N+]1(C)CC\C(CC1)=C(\c2ccccc2)c3ccccc3`, for which the IC50 is > 46 µM.
Take `CCC(C)(C)c1ccc(O)cc1`: the IC50 is > 46 µM.
Turning to `C[C@H]1[C@H](NC(=O)C(=NOC(C)(C)C(=O)O)c2csc(N)n2)C(=O)N1S(=O)(=O)O`, the IC50 is > 46 µM.
In the case of `CN[C@@H]1[C@@H](O)[C@@H](O[C@@H]2[C@@H](O)[C@H](O[C@H]3O[C@H](CN)[C@@H](O)[C@H](O)[C@H]3O)[C@@H](N)C[C@H]2NC(=O)C(O)CN)OC[C@]1(C)O.O=S(=O)(O)O` (some centres not stated), the IC50 was > 46 µM.
Take `O=C(O)[C@H]1CN(C/C=C/P(=O)(O)O)CCN1`: the IC50 was > 46 µM.
On to `CCCCCCCCCCCCCCCCO`, for which the IC50 was > 46 µM.
Regarding `CCCCCCCCCCCCCCCCCCOCC(O)CO` (configuration not stated), the IC50 was > 46 µM.
For `CO/N=C(\C(=O)N[C@@H]1C(=O)N2C(C(=O)[O-])=C(C[n+]3cccc4c3CCC4)CS[C@H]12)c1csc(N)n1.O=S(=O)(O)O`, the IC50 is > 46 µM.
For `C[C@@H](O)[C@H]1C(=O)N2C(C(=O)O)=C(S[C@@H]3CN[C@H](CNS(N)(=O)=O)C3)[C@H](C)[C@H]12` the value was > 46 µM; for `COc1ccccc1N1CCN(CC(O)COc2cccc3ccccc23)CC1` (configuration not stated), > 46 µM; for `O=C1NCN(c2ccccc2)C12CCN(CCCOc1ccc(F)cc1)CC2`, > 46 µM.
For the molecule `Cc1nc[nH]c1CN1CCc2c(c3ccccc3n2C)C1=O.Cl`, the IC50 is > 46 µM.
Then `CC(C)=CCC/C(C)=C/CO`, with > 46 µM.
As for `CCCCN1C[C@H](O)[C@@H](O)[C@H](O)[C@H]1CO`, the IC50 was > 46 µM.
Then `Nc1ncnc2c1ncn2CCOCP(=O)(O)O`, with > 46 µM.
For `Cc1cc(NC(=O)C2=C(O)c3ccccc3S(=O)(=O)N2C)no1` the value was > 46 µM.
Then `O=C(O)CN(CC(=O)O)Cc1cc2c(cc1O)Oc1ccc(CN(CC(=O)O)CC(=O)O)c(O)c1C21OC(=O)c2ccccc21` (configuration not stated), with > 46 µM; and `CC(=O)Nc1c(I)c(C(=O)[O-])c(I)c(N(C)C(C)=O)c1I.[Na+]`, with > 46 µM; and `CC[N+](CC)(CC)CC.[Cl-]`, with > 46 µM.
`CC[C@H](C)C(=O)O[C@H]1CCC=C2C=C[C@H](C)[C@H](CC[C@@H]3C[C@@H](O)CC(=O)O3)[C@H]21`: the IC50 was > 46 µM.
For `Cn1c(=O)c2[nH]c(Br)nc2n(C)c1=O` the value was > 46 µM.
Then `C=CCSSSCC=C`, with > 46 µM; and `Cc1onc(-c2ccccc2Cl)c1C(=O)N[C@@H]1C(=O)N2[C@@H]1SC(C)(C)[C@@H]2C(=O)[O-].[Na+]`, with > 46 µM.
For `CCc1cccc2c3c([nH]c12)C(CC)(CC(=O)O)OCC3` (configuration not stated) the value was > 46 µM; for `CCC1(c2ccccc2)C(=O)NC(=O)N(C(=O)c2ccccc2)C1=O` (configuration not stated), > 46 µM.
On to `Cn1c(=O)c2c(ncn2CC2OCCO2)n(C)c1=O`, for which the IC50 was > 46 µM.
For `Cc1cnc(C(=O)O)c[n+]1[O-]` the value was > 46 µM.
For `C[C@]12CCC(=O)C=C1CC[C@@H]1[C@@H]2[C@@H](O)C[C@@]2(C)[C@H]1CC[C@]2(O)C(=O)COP(=O)([O-])[O-].[Na+].[Na+]`, the IC50 is > 46 µM.
Then `C=CC[N+]1([C@H]2C[C@H]3[C@@H]4CC[C@H]5C[C@H](O)[C@@H](N6CCOCC6)C[C@]5(C)[C@H]4CC[C@]3(C)[C@H]2OC(C)=O)CCCC1.[Br-]`, with > 46 µM.
For `C/C(=C(/CCOP(=O)(O)O)SC(=O)c1ccccc1)N(C=O)Cc1cnc(C)nc1N` the value was > 46 µM; for `O.O=P1(N(CCCl)CCCl)NCCCO1` (configuration not stated), > 46 µM.

The values above are taken from the supplement of paper PMC3493320.
